One assay deals with T1, human TLR7 (Homo sapiens, UniProt Q9NYK1).
T1 construct: host or cells: HEK-Blue cells
T1 sequence (Q9NYK1 27-1049): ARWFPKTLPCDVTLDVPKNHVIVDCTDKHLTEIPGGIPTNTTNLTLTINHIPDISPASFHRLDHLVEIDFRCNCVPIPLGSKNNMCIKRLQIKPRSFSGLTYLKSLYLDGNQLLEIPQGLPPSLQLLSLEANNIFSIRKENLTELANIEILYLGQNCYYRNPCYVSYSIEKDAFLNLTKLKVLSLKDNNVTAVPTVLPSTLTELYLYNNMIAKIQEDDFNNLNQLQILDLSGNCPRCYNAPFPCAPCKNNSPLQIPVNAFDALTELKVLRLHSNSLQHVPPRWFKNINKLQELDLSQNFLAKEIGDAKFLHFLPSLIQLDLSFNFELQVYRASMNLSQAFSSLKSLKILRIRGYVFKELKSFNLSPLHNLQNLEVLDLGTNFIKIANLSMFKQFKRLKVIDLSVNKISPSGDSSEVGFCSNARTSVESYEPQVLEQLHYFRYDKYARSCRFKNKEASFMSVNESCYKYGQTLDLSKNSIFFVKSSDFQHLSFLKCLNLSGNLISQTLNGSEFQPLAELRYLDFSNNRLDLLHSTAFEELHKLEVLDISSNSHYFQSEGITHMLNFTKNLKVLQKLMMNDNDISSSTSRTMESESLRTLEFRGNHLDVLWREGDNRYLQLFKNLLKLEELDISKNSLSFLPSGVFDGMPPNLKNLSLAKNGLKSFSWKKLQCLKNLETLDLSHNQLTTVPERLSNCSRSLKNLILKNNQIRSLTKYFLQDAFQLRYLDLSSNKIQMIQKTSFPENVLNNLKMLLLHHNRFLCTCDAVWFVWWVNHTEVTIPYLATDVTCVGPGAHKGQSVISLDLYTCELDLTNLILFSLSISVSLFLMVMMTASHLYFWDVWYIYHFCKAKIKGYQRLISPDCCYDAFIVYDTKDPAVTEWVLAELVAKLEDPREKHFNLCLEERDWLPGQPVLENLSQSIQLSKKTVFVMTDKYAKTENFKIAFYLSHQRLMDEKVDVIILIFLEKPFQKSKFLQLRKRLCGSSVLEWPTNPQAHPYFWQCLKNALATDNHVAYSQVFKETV
Nature of the assay: TLR7 inhibition reporter assay (HEK-Blue SEAP). The class given is cell-based. The settings on record: HEK-Blue cells overexpressing human TLR7, gardiquimod 7.5 μM, 22 hour incubation. In short, it runs like this:
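22 h, 37° C, 5% CO2 incubation; compounds 0.05 nM-50 μM final; TLR7 cells 15000/well, TLR8 20,000/well. Readout: SEAP via HEK-Blue Detection medium. % inhibition = signal reduction versus agonist + DMSO wells, referenced to known inhibitor.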
(A reporter such as luciferase makes a cellular process visible.)

The target of another assay is T2, human TLR9 (Homo sapiens, UniProt Q9NR96).
T2 construct: host or cells: HEK-Blue cells
T2 sequence (Q9NR96 26-1032): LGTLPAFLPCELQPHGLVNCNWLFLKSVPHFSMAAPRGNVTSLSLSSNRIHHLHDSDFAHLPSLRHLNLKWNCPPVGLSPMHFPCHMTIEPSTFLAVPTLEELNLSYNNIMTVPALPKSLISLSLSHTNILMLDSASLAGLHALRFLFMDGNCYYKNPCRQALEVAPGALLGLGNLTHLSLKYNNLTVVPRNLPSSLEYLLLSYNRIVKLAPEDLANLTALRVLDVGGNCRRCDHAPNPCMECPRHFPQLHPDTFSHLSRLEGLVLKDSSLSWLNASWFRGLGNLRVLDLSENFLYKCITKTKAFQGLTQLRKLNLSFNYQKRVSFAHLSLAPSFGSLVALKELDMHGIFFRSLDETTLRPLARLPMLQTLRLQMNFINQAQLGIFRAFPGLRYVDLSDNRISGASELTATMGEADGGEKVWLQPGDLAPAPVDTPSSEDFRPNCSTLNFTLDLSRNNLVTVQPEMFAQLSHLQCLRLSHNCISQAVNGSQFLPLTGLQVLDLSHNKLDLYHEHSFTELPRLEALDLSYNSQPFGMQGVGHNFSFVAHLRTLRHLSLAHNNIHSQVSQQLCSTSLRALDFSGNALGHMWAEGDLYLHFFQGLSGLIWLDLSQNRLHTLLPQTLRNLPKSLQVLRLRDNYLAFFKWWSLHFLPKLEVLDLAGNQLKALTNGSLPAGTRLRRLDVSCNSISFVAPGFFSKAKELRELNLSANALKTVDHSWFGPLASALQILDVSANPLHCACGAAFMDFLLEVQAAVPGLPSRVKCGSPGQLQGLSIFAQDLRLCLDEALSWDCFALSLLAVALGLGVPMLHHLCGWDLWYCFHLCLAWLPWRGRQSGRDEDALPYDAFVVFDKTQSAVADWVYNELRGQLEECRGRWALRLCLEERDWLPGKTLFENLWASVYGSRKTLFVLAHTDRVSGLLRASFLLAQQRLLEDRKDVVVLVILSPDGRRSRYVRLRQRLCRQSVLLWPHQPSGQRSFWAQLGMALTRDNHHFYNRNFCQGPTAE
Nature of the assay: TLR9 inhibition reporter assay (HEK-Blue SEAP). It is filed as cell-based. Conditions: HEK-Blue cells overexpressing human TLR9, ODN2006 5 nM, 22 hour incubation. In short, it runs like this:
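Compound treatment: 30 min, RT, 0.05 nM–50 μM final. Agonist: TLR7 gardiquimod 7.5 μM; TLR8 R848 15.9 μM; TLR9 ODN2006 5 nM. Incubation 22 h, 37 °C, 5% CO2. Readout SEAP, HEK-Blue Detection.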

Usually IC50 stands for the concentration that gives 50% inhibition.

SMILES strings stand for the structures.

As to `COc1cc(-c2cc3[nH]c(=O)n([C@H]4CC[C@H](NC5COC5)CC4)c3cc2C(C)C)cn2ncnc12` [Example 201, 6-isopropyl-5-(8-methoxy-[1,2,4]triazolo[1,5-a]pyridin-6-yl)-1-((1r,4r)-4-(oxetan-3-ylamino)cyclohexyl)-1,3-dihydro-2H-benzo[d]imidazol-2-one], the IC50 on human TLR7 was 2.07 nM; against human TLR9, 22900 nM.

On to `Cc1c(-c2cc3[nH]c(=O)n([C@H]4CC[C@@H](NCC(C)(C)C)CC4)c3cc2C(C)C)cn2ncnc2c1C` [Example 190, 5-(7,8-dimethyl-[1,2,4]triazolo[1,5-a]pyridin-6-yl)-6-isopropyl-1-((1s,4s)-4-(neopentylamino)cyclohexyl)-1,3-dihydro-2H-benzo[d]imidazol-2-one], for which the figures for the IC50 against human TLR7 and against human TLR9 were 5.72 nM and 5050 nM, respectively.

Regarding `COCCN1CCC[C@@H](n2c(=O)[nH]c3cc(-c4cc(OC)c5ncnn5c4)c(C(C)C)cc32)C1` (single isomer, unassigned) [Example 225], the IC50 against human TLR7 stood at 7.96 nM; at human TLR9, 33800 nM.

Turning to `COc1cc(-c2cc3[nH]c(=O)n([C@@H]4CCCN(C5CCOC5)C4)c3cc2C(C)C)cn2ncnc12` (stereo partly drawn) [Example 216, 6-isopropyl-5-(8-methoxy-[1,2,4]triazolo[1,5-a]pyridin-6-yl)-1-((3R)-1-(tetrahydrofuran-3-yl)piperidin-3-yl)-1,3-dihydro-2H-benzo[d]imidazol-2-one], the IC50 against human TLR7 is 14.6 nM; against human TLR9, above 50000 nM.

For `CCc1cc2c(cc1-c1cc(OC)c3ncnn3c1)[nH]c(=O)n2[C@@H]1CCCN(CC(C)C)C1` [Example 177, (R)-6-ethyl-1-(1-isobutylpiperidin-3-yl)-5-(8-methoxy-[1,2,4]triazolo[1,5-a]pyridin-6-yl)-1,3-dihydro-2H-benzo[d]imidazol-2-one], the results for the IC50 against human TLR7 and against human TLR9 were 1.07 nM and 10700 nM, respectively.

Turning to `COc1cc(-c2cc3[nH]c(=O)n([C@H]4CC[C@H](NC(C)C)CC4)c3cc2C(C)C)cn2ncnc12` [Example 203, 6-isopropyl-1-((1r,4s)-4-(isopropylamino)cyclohexyl)-5-(8-methoxy-[1,2,4]triazolo[1,5-a]pyridin-6-yl)-1,3-dihydro-2H-benzo[d]imidazol-2-one], the results for the IC50 against human TLR7 and on human TLR9 were 4.72 nM and 30900 nM, respectively.

For the molecule `COc1cc(-c2cc3[nH]c(=O)n([C@H]4CC[C@@H](NC(C)C)CC4)c3cc2C(C)C)cn2ncnc12` [Example 192, 6-isopropyl-1-((1s,4s)-4-(isopropylamino)cyclohexyl)-5-(8-methoxy-[1,2,4]triazolo[1,5-a]pyridin-6-yl)-1,3-dihydro-2H-benzo[d]imidazol-2-one], the IC50 at human TLR7 is 1.97 nM; against human TLR9, 16600 nM.

As for `COc1cc(-c2cc3[nH]c(=O)n([C@@H]4CCCN(C5CCOC5)C4)c3cc2C(C)C)cn2ncnc12` (stereo partly drawn) [Example 217, 6-isopropyl-5-(8-methoxy-[1,2,4]triazolo[1,5-a]pyridin-6-yl)-1-((3R)-1-(tetrahydrofuran-3-yl)piperidin-3-yl)-1,3-dihydro-2H-benzo[d]imidazol-2-one], the IC50 at human TLR7 was 11.2 nM; on human TLR9, above 50000 nM.

As for `COc1cc(-c2cc3[nH]c(=O)n([C@@H]4CCCN(CC5CCCC5)C4)c3cc2C(C)C)cn2ncnc12` [Example 211, (R)-1-(1-(cyclopentylmethyl)piperidin-3-yl)-6-isopropyl-5-(8-methoxy-[1,2,4]triazolo[1,5-a]pyridin-6-yl)-1,3-dihydro-2H-benzo[d]imidazol-2-one], the IC50 against human TLR7 was 0.05 nM; at human TLR9, 2980 nM.

In the case of `COc1cc(-c2cc3[nH]c(=O)n([C@@H]4CCCN(CCC(C)(C)C)C4)c3cc2C(C)C)cn2ncnc12` [Example 210, (R)-1-(1-(3,3-dimethylbutyl)piperidin-3-yl)-6-isopropyl-5-(8-methoxy-[1,2,4]triazolo[1,5-a]pyridin-6-yl)-1,3-dihydro-2H-benzo[d]imidazol-2-one], the values for the IC50 on human TLR7 and on human TLR9 were 2.86 nM and 2360 nM, respectively.

With `COc1c(C)c(-c2cc3[nH]c(=O)n(C4CCC(N5CCC(F)(F)CC5)CC4)c3cc2C(C)C)cn2ncnc12` (single isomer, unassigned) [Example 229, 1-(4-(4,4-difluoropiperidin-1-yl)cyclohexyl)-6-isopropyl-5-(8-methoxy-7-methyl-[1,2,4]triazolo[1,5-a]pyridin-6-yl)-1,3-dihydro-2H-benzo[d]imidazol-2-one], the IC50 was 7.31 nM against human TLR7 and 30000 nM against human TLR9.

Turning to `CCc1cc2c(cc1-c1cc(OC)c3ncnn3c1)[nH]c(=O)n2[C@@H]1CCCN(C(=O)CN(C)C)C1` [Example 228, (R)-1-(1-(dimethylglycyl)piperidin-3-yl)-6-ethyl-5-(8-methoxy-[1,2,4]triazolo[1,5-a]pyridin-6-yl)-1,3-dihydro-2H-benzo[d]imidazol-2-one], the IC50 against human TLR7 is 34.9 nM; against human TLR9, 14100 nM.

In the case of `COc1cc(-c2cc3[nH]c(=O)n(C4CCC(N5CCNC(=O)C5)CC4)c3cc2C(C)C)cn2ncnc12` (single isomer, unassigned) [Example 234, 6-isopropyl-5-(8-methoxy-[1,2,4]triazolo[1,5-a]pyridin-6-yl)-1-(4-(3-oxopiperazin-1-yl)cyclohexyl)-1,3-dihydro-2H-benzo[d]imidazol-2-one], the IC50 at human TLR7 is 42.7 nM; against human TLR9 it was above 50000 nM.

For `COc1cc(-c2cc3[nH]c(=O)n(C4CCC(N5CCCC5)CC4)c3cc2C(C)C)cn2ncnc12` (centres unmarked) [Example 232, 6-isopropyl-5-(8-methoxy-[1,2,4]triazolo[1,5-a]pyridin-6-yl)-1-(4-(pyrrolidin-1-yl)cyclohexyl)-1,3-dihydro-2H-benzo[d]imidazol-2-one], the values for the IC50 against human TLR7 and against human TLR9 were 1.4 nM and 7780 nM, respectively.

With `CCc1cc2c(cc1-c1cc(OC)c3ncnn3c1)[nH]c(=O)n2[C@@H]1CCCN(CCOC)C1` [Example 227, (R)-6-ethyl-5-(8-methoxy-[1,2,4]triazolo[1,5-a]pyridin-6-yl)-1-(1-(2-methoxyethyl)piperidin-3-yl)-1,3-dihydro-2H-benzo[d]imidazol-2-one], the IC50 was found to be 2.86 nM against human TLR7 and 15200 nM at human TLR9.

As to `CCc1cc2c(cc1-c1cc(OC)c3ncnn3c1)[nH]c(=O)n2[C@@H]1CCCN(CCC(C)(C)C)C1` [Example 208, (R)-1-(1-(3,3-dimethylbutyl)piperidin-3-yl)-6-ethyl-5-(8-methoxy-[1,2,4]triazolo[1,5-a]pyridin-6-yl)-1,3-dihydro-2H-benzo[d]imidazol-2-one], the IC50 was determined as 6.52 nM at human TLR7 and 3320 nM on human TLR9.
